Assay results published in PubChem BioAssay (NCI).
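Each compound was tested at five concentrations against cells in 96-well plates for 48 hours. Abbreviation: GI50, concentration required for 50% inhibition of growth. TGI: concentration producing complete growth inhibition.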

What was measured:
Experiment in all cases: inhibition of tumour cell growth, NCI panel, 48 h
MALME-3M melanoma = tested on: MALME-3M melanoma
LOX IMVI melanoma = tested on: LOX IMVI melanoma
COLO 205 colon = tested on: COLO 205 colon
PC-3 prostate = tested on: PC-3 prostate
HOP-62 NSCLC = tested on: HOP-62 NSCLC
CCRF-CEM leukemia = tested on: CCRF-CEM leukemia
SF-268 CNS = tested on: SF-268 CNS
HL-60(TB) leukemia = tested on: HL-60(TB) leukemia
EKVX NSCLC = tested on: EKVX NSCLC
HOP-92 NSCLC = tested on: HOP-92 NSCLC
OVCAR-8 ovarian = tested on: OVCAR-8 ovarian
OVCAR-3 ovarian = tested on: OVCAR-3 ovarian
IGROV1 ovarian = tested on: IGROV1 ovarian
SNB-19 CNS = tested on: SNB-19 CNS
T-47D breast = tested on: T-47D breast
HS 578T breast = tested on: HS 578T breast
SK-MEL-28 melanoma = tested on: SK-MEL-28 melanoma
U251 CNS = tested on: U251 CNS
MDA-MB-468 breast = tested on: MDA-MB-468 breast
UACC-62 melanoma = tested on: UACC-62 melanoma
SK-MEL-2 melanoma = tested on: SK-MEL-2 melanoma
SK-OV-3 ovarian = tested on: SK-OV-3 ovarian
TK-10 renal = tested on: TK-10 renal
NCI-H522 lung = tested on: NCI-H522 lung
HCT-15 colon = tested on: HCT-15 colon
SK-MEL-5 melanoma = tested on: SK-MEL-5 melanoma
BT-549 breast = tested on: BT-549 breast
MDA-MB-435 = tested on: MDA-MB-435
HCT-116 colon = tested on: HCT-116 colon
SNB-75 CNS = tested on: SNB-75 CNS
NCI-H226 lung = tested on: NCI-H226 lung
ACHN renal = tested on: ACHN renal
NCI-H460 lung = tested on: NCI-H460 lung
SF-539 CNS = tested on: SF-539 CNS
OVCAR-4 ovarian = tested on: OVCAR-4 ovarian
RXF 393 renal = tested on: RXF 393 renal
A549 NSCLC = tested on: A549 NSCLC
HCC-2998 colon = tested on: HCC-2998 colon
UACC-257 melanoma = tested on: UACC-257 melanoma
DU-145 prostate = tested on: DU-145 prostate
SW-620 colon = tested on: SW-620 colon
SF-295 CNS = tested on: SF-295 CNS
786-0 renal = tested on: 786-0 renal
RPMI-8226 leukemia = tested on: RPMI-8226 leukemia
MOLT-4 leukemia = tested on: MOLT-4 leukemia
NCI-H23 lung = tested on: NCI-H23 lung
K-562 leukemia = tested on: K-562 leukemia
M14 melanoma = tested on: M14 melanoma
HT29 colon = tested on: HT29 colon
NCI/ADR-RES ovarian = tested on: NCI/ADR-RES ovarian
OVCAR-5 ovarian = tested on: OVCAR-5 ovarian
CAKI-1 renal = tested on: CAKI-1 renal
MCF7 breast = tested on: MCF7 breast
A498 renal = tested on: A498 renal
SN12C renal = tested on: SN12C renal
KM12 colon = tested on: KM12 colon

O=C(c1ccccc1)n1ccc(-c2cc3cc(Br)ccc3oc2=O)n1
GI50 (MALME-3M melanoma): 5.9 µM | TGI (MALME-3M melanoma): > 100 µM | GI50 (LOX IMVI melanoma): 2.8 µM | TGI (LOX IMVI melanoma): 90.9 µM | GI50 (COLO 205 colon): 19.1 µM | TGI (COLO 205 colon): 73.6 µM | GI50 (PC-3 prostate): 4.05 µM | TGI (PC-3 prostate): > 100 µM | GI50 (HOP-62 NSCLC): 3.48 µM | TGI (HOP-62 NSCLC): > 100 µM | GI50 (CCRF-CEM leukemia): 1.52 µM | TGI (CCRF-CEM leukemia): 15.6 µM | GI50 (SF-268 CNS): 4.29 µM | TGI (SF-268 CNS): > 100 µM | GI50 (HL-60(TB) leukemia): 2.09 µM | TGI (HL-60(TB) leukemia): 5.49 µM | GI50 (EKVX NSCLC): 2.7 µM | TGI (EKVX NSCLC): > 100 µM | GI50 (HOP-92 NSCLC): 0.545 µM | TGI (HOP-92 NSCLC): > 100 µM | GI50 (OVCAR-8 ovarian): 2.73 µM | TGI (OVCAR-8 ovarian): 51.6 µM | GI50 (OVCAR-3 ovarian): 2.06 µM | TGI (OVCAR-3 ovarian): > 100 µM | GI50 (IGROV1 ovarian): 5.48 µM | TGI (IGROV1 ovarian): > 100 µM | GI50 (SNB-19 CNS): 9.97 µM | TGI (SNB-19 CNS): > 100 µM | GI50 (T-47D breast): 6.22 µM | TGI (T-47D breast): 70.9 µM | GI50 (HS 578T breast): 17.5 µM | TGI (HS 578T breast): > 100 µM | GI50 (SK-MEL-28 melanoma): 6.05 µM | TGI (SK-MEL-28 melanoma): > 100 µM | GI50 (U251 CNS): 4.82 µM | TGI (U251 CNS): > 100 µM | GI50 (MDA-MB-468 breast): 3.6 µM | TGI (MDA-MB-468 breast): 25.2 µM | GI50 (UACC-62 melanoma): 3.55 µM | TGI (UACC-62 melanoma): 22.9 µM | GI50 (SK-MEL-2 melanoma): 5.6 µM | TGI (SK-MEL-2 melanoma): 74.7 µM | GI50 (SK-OV-3 ovarian): 6.08 µM | TGI (SK-OV-3 ovarian): 62.5 µM | GI50 (TK-10 renal): 47.5 µM | TGI (TK-10 renal): > 100 µM | GI50 (NCI-H522 lung): 3.36 µM | TGI (NCI-H522 lung): 17 µM | GI50 (HCT-15 colon): 2.88 µM | TGI (HCT-15 colon): > 100 µM | GI50 (SK-MEL-5 melanoma): 4.14 µM | TGI (SK-MEL-5 melanoma): 23.6 µM | GI50 (BT-549 breast): 5.18 µM | TGI (BT-549 breast): 78 µM | GI50 (MDA-MB-435): 14.7 µM | TGI (MDA-MB-435): > 100 µM | GI50 (HCT-116 colon): 3.52 µM | TGI (HCT-116 colon): > 100 µM | GI50 (SNB-75 CNS): 7.09 µM | TGI (SNB-75 CNS): > 100 µM | GI50 (NCI-H226 lung): 7.23 µM | TGI (NCI-H226 lung): 62.1 µM | GI50 (ACHN renal): 3.94 µM | TGI (ACHN renal): > 100 µM | GI50 (NCI-H460 lung): 3.78 µM | TGI (NCI-H460 lung): > 100 µM | GI50 (SF-539 CNS): 7.44 µM | TGI (SF-539 CNS): 67.3 µM | GI50 (OVCAR-4 ovarian): 4.56 µM | TGI (OVCAR-4 ovarian): > 100 µM | GI50 (RXF 393 renal): 6.18 µM | TGI (RXF 393 renal): > 100 µM | GI50 (A549 NSCLC): 12.6 µM | TGI (A549 NSCLC): > 100 µM | GI50 (HCC-2998 colon): 5.29 µM | TGI (HCC-2998 colon): > 100 µM | GI50 (UACC-257 melanoma): 4 µM | TGI (UACC-257 melanoma): 30.2 µM | GI50 (DU-145 prostate): 8.9 µM | TGI (DU-145 prostate): > 100 µM | GI50 (SW-620 colon): 5.15 µM | TGI (SW-620 colon): > 100 µM | GI50 (SF-295 CNS): 8.91 µM | TGI (SF-295 CNS): > 100 µM | GI50 (786-0 renal): 3.99 µM | TGI (786-0 renal): > 100 µM | GI50 (RPMI-8226 leukemia): 3.8 µM | TGI (RPMI-8226 leukemia): > 100 µM | GI50 (MOLT-4 leukemia): 3.32 µM | TGI (MOLT-4 leukemia): 9.55 µM | GI50 (NCI-H23 lung): 5.87 µM | TGI (NCI-H23 lung): > 100 µM | GI50 (K-562 leukemia): 3.59 µM | TGI (K-562 leukemia): > 100 µM | GI50 (M14 melanoma): 3.94 µM | TGI (M14 melanoma): 24 µM | GI50 (HT29 colon): 16.5 µM | TGI (HT29 colon): > 100 µM | GI50 (NCI/ADR-RES ovarian): 4.13 µM | TGI (NCI/ADR-RES ovarian): 81.3 µM | GI50 (OVCAR-5 ovarian): 13.9 µM | TGI (OVCAR-5 ovarian): > 100 µM | GI50 (CAKI-1 renal): 4.16 µM | TGI (CAKI-1 renal): > 100 µM | GI50 (MCF7 breast): 2.74 µM | TGI (MCF7 breast): > 100 µM | GI50 (A498 renal): > 100 µM | TGI (A498 renal): > 100 µM | GI50 (SN12C renal): 6.28 µM | TGI (SN12C renal): > 100 µM | GI50 (KM12 colon): 4.45 µM | TGI (KM12 colon): > 100 µM
